# Reference: US20240400547A1, “2,6-PIPERIDINEDIONE COMPOUND AND APPLICATION THEREOF” (MEDSHINE DISCOVERY INC., priority 2021, published 2024)
# Counter-ions that a name gives are not always drawn.
# Assay: Pharmacokinetic evaluation in beagles
# Type: in vivo, beagle
# Conditions: beagles (fed)
# Source text: In this study, male beagles were selected as test animals, and LC/MS/MS method was used to quantify plasma concentrations of the test compound intravenously injected or intragastrically administered to beagles at different time points, so as to evaluate the pharmacokinetic profile of the compounds of the present disclosure in beagles.
# Beagle (male, 7 to 10 kg, Beijing Marshall Biotechnology Co., Ltd.).
# • A clear solution of the test compound was slowly injected into beagle via the peripheral vein (fed) (vehicle: […]/10% solutol/85% H2O or 5% DMSO/10% solutol/85% H2O), or intragastrically administered to beagles (fed). For intravenous injection, 0.5 mL blood was collected via the saphenous vein puncture at 0.083, 0.25, 0.5, 1, 2, 4, 6, 8, and 24 h after administration, and placed in a EDTA-2K anticoagulant tube. The mixture was centrifuged at 3200 g for 10 minutes at 2 to 8° C., and the supernatant was separated. For oral administration, 0.5 mL blood was collected via the saphenous vein puncture at 0.083, 0.25, 0.5, 1, 2, 4, 6, 8, and 24 h after administration, and placed in a EDTA-2K anticoagulant tube. The mixture was centrifuged at 3200 g for 10 minutes at 2 to 8° C., and the supernatant was separated. Plasma drug concentrations were determined by LC-MS/MS method, and relevant pharmacokinetic parameters were calculated using Phoenix WinNonlin 6.3 pharmacokinetic software with non-compartmental model linear-log trapezoidal method.
# [1] = intragastric administration 5 mg/kg
smiles,measurement,setting,value
O=C1CCC(c2noc3ccc4c(NC(=O)CN5CCN(C[C@H]6CC[C@H](n7cc(NC(=O)c8coc(-c9ccnc(NCC%10CC%10)c9)n8)c(C(F)F)n7)CC6)CC5)cccc4c23)C(=O)N1 (some centres unmarked) [Hydrochloride of WX014],Area under drug-time curve (0-inf),[1],3200 nM·h
same,Peak concentration,[1],0.41 µM
same,Time to peak concentration,[1],4.00 h
same,Area under drug-time curve (0-inf),intravenous injection 0.5 mg/kg,440 nM·h
same,Vd,"male, beagle, dog, plasma, intravenous injection 0.5 mg/kg, read-out: Apparent volume of distribution",5.83 L/kg
